Tests used:
Assay in all cases: KINOMEscan
Type in all cases: binding
RET (V804M) = biological target: T1, RET (V804M) (Homo sapiens, UniProt P07949, V804M)
T1 construct: purchased Eurofins DiscoverX KINOMEscan
In short: (§1)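 1 h RT binding → immobilized-ligand capture of free kinase → qPCR quantitation. Kd: 12 half-log points, max 33 μM.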

EGFR (T790M) = biological target: T2, EGFR (T790M) (Homo sapiens, UniProt P00533, T790M)
T2 construct: purchased Eurofins DiscoverX KINOMEscan
In short: (§2)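 Compound and kinase were incubated at room temperature for 1 h, the free kinase fraction was captured with an immobilized affinity ligand, and capture was quantified by quantitative PCR; Kd values used a 12-point half-log series up to 33 μM.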

TSSK1B = biological target: T3, TSSK1B (Homo sapiens, UniProt Q9BXA7)
T3 construct: purchased Eurofins DiscoverX KINOMEscan
T3 sequence (Q9BXA7 whole entry): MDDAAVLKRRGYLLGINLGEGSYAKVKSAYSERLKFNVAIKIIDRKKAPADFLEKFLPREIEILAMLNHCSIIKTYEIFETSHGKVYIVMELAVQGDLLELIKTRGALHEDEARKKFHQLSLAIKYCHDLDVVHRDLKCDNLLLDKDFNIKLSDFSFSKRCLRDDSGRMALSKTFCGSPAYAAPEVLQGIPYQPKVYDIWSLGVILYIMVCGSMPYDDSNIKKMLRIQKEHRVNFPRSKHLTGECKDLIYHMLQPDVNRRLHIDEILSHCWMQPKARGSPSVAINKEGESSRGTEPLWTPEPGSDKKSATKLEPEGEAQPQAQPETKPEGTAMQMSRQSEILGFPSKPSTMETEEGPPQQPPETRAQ
In short: as §1

RIOK3 = biological target: T4, RIOK3 (Homo sapiens, UniProt O14730)
T4 construct: purchased Eurofins DiscoverX KINOMEscan
T4 sequence (O14730 whole entry): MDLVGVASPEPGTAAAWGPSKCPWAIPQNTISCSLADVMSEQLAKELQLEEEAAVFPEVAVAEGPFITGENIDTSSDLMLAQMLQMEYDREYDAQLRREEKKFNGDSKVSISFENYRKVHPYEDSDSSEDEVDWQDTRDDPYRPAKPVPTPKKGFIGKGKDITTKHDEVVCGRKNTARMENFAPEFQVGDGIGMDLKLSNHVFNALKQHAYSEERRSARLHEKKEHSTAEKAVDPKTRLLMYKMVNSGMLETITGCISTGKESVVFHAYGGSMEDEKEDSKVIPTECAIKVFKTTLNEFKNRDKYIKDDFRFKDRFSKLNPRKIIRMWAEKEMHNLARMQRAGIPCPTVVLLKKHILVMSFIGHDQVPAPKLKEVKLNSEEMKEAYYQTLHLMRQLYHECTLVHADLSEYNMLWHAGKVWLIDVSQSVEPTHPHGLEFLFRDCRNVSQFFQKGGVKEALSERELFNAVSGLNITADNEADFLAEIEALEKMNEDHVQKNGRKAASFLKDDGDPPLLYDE
In short: as §2

GRK4 = biological target: T5, GRK4 (Homo sapiens, UniProt P32298)
T5 construct: purchased Eurofins DiscoverX KINOMEscan
In short: as §1

PKN1 = biological target: T6, PKN1 (Homo sapiens, UniProt Q16512)
T6 construct: purchased Eurofins DiscoverX KINOMEscan
In short: as §1

PRKCD = biological target: T7, PRKCD (Homo sapiens, UniProt Q05655)
T7 construct: purchased Eurofins DiscoverX KINOMEscan
In short: as §1

FLT3-autoinhibited = biological target: T8, FLT3-autoinhibited (Homo sapiens, UniProt P36888)
T8 construct: purchased Eurofins DiscoverX KINOMEscan
In short: as §1

PKAC-α = biological target: T9, PKAC-α (Homo sapiens, UniProt P17612)
T9 construct: purchased Eurofins DiscoverX KINOMEscan
In short: as §1

TRKA = biological target: T10, TRKA (Homo sapiens, UniProt P04629)
T10 construct: purchased Eurofins DiscoverX KINOMEscan
T10 sequence (P04629 33-796): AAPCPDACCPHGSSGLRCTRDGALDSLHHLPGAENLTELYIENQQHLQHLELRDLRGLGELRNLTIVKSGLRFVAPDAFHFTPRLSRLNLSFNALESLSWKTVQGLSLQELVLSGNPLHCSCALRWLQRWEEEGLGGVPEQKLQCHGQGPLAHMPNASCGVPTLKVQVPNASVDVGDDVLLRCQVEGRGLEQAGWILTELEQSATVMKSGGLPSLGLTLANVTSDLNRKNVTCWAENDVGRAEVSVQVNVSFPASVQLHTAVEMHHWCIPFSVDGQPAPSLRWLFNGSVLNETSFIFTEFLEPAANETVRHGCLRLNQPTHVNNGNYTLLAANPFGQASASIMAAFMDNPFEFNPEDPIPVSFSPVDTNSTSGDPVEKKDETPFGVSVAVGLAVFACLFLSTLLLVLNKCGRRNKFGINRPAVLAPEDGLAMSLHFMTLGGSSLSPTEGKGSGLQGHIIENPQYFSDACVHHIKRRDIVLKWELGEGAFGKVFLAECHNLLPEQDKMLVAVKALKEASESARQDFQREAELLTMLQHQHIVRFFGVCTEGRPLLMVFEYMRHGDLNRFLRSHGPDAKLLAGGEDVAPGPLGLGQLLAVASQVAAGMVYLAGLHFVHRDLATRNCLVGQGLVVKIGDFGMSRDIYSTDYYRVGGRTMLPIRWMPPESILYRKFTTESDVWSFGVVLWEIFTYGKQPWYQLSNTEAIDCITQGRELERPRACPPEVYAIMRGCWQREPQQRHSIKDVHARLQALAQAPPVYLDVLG
In short: as §2

CDKL1 = biological target: T11, CDKL1 (Homo sapiens, UniProt Q00532)
T11 construct: purchased Eurofins DiscoverX KINOMEscan
In short: as §1

FER = biological target: T12, FER (Homo sapiens, UniProt P16591)
T12 construct: purchased Eurofins DiscoverX KINOMEscan
In short: as §1

DRAK2 = biological target: T13, DRAK2 (Homo sapiens, UniProt O94768)
T13 construct: purchased Eurofins DiscoverX KINOMEscan
T13 sequence (O94768 whole entry): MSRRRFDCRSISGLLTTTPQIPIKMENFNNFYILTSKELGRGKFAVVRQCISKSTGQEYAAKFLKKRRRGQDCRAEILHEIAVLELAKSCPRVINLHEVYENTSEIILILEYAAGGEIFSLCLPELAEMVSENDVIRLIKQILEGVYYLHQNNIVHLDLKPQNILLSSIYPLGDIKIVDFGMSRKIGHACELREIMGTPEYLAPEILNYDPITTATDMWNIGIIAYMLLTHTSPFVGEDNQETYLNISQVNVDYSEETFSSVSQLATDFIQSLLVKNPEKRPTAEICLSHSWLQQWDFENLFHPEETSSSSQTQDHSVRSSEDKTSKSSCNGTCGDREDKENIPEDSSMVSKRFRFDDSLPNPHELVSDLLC
In short: as §1

EPHB6 = biological target: T14, EPHB6 (Homo sapiens, UniProt O15197)
T14 construct: purchased Eurofins DiscoverX KINOMEscan
In short: as §1

CLK1 = biological target: T15, CLK1 (Homo sapiens, UniProt P49759)
T15 construct: purchased Eurofins DiscoverX KINOMEscan
T15 sequence (P49759 whole entry): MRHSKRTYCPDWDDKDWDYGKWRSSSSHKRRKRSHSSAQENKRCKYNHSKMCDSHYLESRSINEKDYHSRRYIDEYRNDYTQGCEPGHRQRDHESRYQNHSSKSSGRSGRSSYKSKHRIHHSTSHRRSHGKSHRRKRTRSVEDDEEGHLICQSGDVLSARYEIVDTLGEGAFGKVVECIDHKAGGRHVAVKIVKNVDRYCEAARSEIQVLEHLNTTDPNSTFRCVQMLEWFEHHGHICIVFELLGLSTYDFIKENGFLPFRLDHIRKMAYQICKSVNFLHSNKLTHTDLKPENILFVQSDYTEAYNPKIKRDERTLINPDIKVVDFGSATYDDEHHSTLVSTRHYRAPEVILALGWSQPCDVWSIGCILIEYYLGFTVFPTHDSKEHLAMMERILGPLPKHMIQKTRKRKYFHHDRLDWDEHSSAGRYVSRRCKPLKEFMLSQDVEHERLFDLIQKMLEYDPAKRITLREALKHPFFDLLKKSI
In short: as §2

MAP3K2 = biological target: T16, MAP3K2 (Homo sapiens, UniProt Q9Y2U5)
T16 construct: purchased Eurofins DiscoverX KINOMEscan
In short: as §1

ROS1 = biological target: T17, ROS1 (Homo sapiens, UniProt P08922)
T17 construct: purchased Eurofins DiscoverX KINOMEscan
In short: as §1

PIK3CA (E545K) = biological target: T18, PIK3CA (E545K) (Homo sapiens, UniProt P42336, E545K)
T18 construct: purchased Eurofins DiscoverX KINOMEscan
In short: as §1

CSNK1A1 = biological target: T19, CSNK1A1 (Homo sapiens, UniProt P48729)
T19 construct: purchased Eurofins DiscoverX KINOMEscan
In short: as §1

ABL1-P = biological target: T20, ABL1-P (Homo sapiens, UniProt P00519)
T20 construct: purchased Eurofins DiscoverX KINOMEscan
In short: as §1

RIPK1 = biological target: T21, RIPK1 (Homo sapiens, UniProt Q13546)
T21 construct: purchased Eurofins DiscoverX KINOMEscan
In short: as §2

CAMKK1 = biological target: T22, CAMKK1 (Homo sapiens, UniProt Q8N5S9)
T22 construct: purchased Eurofins DiscoverX KINOMEscan
In short: as §1

PIK3CA (E542K) = biological target: T23, PIK3CA (E542K) (Homo sapiens, UniProt P42336, E542K)
T23 construct: purchased Eurofins DiscoverX KINOMEscan
In short: as §2

AURKB = biological target: T24, AURKB (Homo sapiens, UniProt Q96GD4)
T24 construct: purchased Eurofins DiscoverX KINOMEscan
In short: as §1

CAMKK2 = biological target: T25, CAMKK2 (Homo sapiens, UniProt Q96RR4)
T25 construct: purchased Eurofins DiscoverX KINOMEscan
T25 sequence (Q96RR4 whole entry): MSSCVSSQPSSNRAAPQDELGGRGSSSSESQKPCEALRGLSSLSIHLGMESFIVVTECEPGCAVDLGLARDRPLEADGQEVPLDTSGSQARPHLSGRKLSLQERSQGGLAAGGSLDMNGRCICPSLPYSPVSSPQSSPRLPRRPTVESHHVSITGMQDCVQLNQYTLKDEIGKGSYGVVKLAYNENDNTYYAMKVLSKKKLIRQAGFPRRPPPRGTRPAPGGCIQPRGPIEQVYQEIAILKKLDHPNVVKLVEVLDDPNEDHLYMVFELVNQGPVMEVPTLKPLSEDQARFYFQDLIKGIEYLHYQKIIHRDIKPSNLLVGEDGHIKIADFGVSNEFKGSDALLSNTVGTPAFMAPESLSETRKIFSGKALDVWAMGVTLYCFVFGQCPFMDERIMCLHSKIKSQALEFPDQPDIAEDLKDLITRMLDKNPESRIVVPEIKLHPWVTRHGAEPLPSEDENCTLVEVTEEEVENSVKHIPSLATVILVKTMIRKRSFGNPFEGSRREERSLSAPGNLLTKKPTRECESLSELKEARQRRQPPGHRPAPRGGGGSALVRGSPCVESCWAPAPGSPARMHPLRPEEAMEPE
In short: as §2

CAMK4 = biological target: T26, CAMK4 (Homo sapiens, UniProt Q16566)
T26 construct: purchased Eurofins DiscoverX KINOMEscan
In short: as §1

CDKL5 = biological target: T27, CDKL5 (Homo sapiens, UniProt O76039)
T27 construct: purchased Eurofins DiscoverX KINOMEscan
In short: as §1

NEK1 = biological target: T28, NEK1 (Homo sapiens, UniProt Q96PY6)
T28 construct: purchased Eurofins DiscoverX KINOMEscan
In short: as §1

EGFR (G719C) = biological target: T29, EGFR (G719C) (Homo sapiens, UniProt P00533, G719C)
T29 construct: purchased Eurofins DiscoverX KINOMEscan
In short: as §1

CASK = biological target: T30, CASK (Homo sapiens, UniProt O14936)
T30 construct: purchased Eurofins DiscoverX KINOMEscan
In short: as §1

EPHA3 = biological target: T31, EPHA3 (Homo sapiens, UniProt P29320)
T31 construct: purchased Eurofins DiscoverX KINOMEscan
In short: as §1

ADCK4 = biological target: T32, ADCK4 (Homo sapiens, UniProt Q96D53)
T32 construct: purchased Eurofins DiscoverX KINOMEscan
In short: as §1

YANK1 = biological target: T33, YANK1 (Homo sapiens, UniProt Q8WU08)
T33 construct: purchased Eurofins DiscoverX KINOMEscan
T33 sequence (Q8WU08 whole entry): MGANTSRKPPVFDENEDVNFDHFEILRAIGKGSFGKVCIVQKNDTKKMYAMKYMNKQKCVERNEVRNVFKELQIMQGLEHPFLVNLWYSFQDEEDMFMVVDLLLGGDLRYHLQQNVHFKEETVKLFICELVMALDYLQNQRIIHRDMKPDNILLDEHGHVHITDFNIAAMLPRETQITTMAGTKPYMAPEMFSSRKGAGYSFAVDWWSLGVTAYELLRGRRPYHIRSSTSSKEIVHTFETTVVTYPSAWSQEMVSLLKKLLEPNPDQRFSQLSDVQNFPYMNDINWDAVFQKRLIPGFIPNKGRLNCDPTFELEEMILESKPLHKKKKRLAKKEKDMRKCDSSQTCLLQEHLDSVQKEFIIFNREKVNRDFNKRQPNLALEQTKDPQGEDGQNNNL
In short: as §1

AKT3 = biological target: T34, AKT3 (Homo sapiens, UniProt Q9Y243)
T34 construct: purchased Eurofins DiscoverX KINOMEscan
In short: as §1

TBK1 = biological target: T35, TBK1 (Homo sapiens, UniProt Q9UHD2)
T35 construct: purchased Eurofins DiscoverX KINOMEscan
In short: as §1

WNK4 = biological target: T36, WNK4 (Homo sapiens, UniProt Q96J92)
T36 construct: purchased Eurofins DiscoverX KINOMEscan
In short: as §1

ERK2 = biological target: T37, ERK2 (Homo sapiens, UniProt P28482)
T37 construct: purchased Eurofins DiscoverX KINOMEscan
T37 sequence (P28482 whole entry): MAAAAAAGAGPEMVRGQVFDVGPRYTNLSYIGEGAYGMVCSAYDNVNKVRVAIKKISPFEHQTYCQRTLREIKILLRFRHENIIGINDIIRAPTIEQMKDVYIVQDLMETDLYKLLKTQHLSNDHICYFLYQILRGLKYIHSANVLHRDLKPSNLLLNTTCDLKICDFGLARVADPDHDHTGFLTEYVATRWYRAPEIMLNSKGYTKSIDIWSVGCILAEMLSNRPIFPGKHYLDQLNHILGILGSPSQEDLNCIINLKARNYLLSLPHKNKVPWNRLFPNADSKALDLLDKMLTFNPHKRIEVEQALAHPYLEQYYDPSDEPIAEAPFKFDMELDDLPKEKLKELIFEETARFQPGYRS
In short: as §1

PRKR = biological target: T38, PRKR (Homo sapiens, UniProt P19525)
T38 construct: purchased Eurofins DiscoverX KINOMEscan
In short: as §1

WNK2 = biological target: T39, WNK2 (Homo sapiens, UniProt Q9Y3S1)
T39 construct: purchased Eurofins DiscoverX KINOMEscan
In short: as §1

MYLK4 = biological target: T40, MYLK4 (Homo sapiens, UniProt Q86YV6)
T40 construct: purchased Eurofins DiscoverX KINOMEscan
In short: as §1

T1 sequence (P07949 29-1114 V804M): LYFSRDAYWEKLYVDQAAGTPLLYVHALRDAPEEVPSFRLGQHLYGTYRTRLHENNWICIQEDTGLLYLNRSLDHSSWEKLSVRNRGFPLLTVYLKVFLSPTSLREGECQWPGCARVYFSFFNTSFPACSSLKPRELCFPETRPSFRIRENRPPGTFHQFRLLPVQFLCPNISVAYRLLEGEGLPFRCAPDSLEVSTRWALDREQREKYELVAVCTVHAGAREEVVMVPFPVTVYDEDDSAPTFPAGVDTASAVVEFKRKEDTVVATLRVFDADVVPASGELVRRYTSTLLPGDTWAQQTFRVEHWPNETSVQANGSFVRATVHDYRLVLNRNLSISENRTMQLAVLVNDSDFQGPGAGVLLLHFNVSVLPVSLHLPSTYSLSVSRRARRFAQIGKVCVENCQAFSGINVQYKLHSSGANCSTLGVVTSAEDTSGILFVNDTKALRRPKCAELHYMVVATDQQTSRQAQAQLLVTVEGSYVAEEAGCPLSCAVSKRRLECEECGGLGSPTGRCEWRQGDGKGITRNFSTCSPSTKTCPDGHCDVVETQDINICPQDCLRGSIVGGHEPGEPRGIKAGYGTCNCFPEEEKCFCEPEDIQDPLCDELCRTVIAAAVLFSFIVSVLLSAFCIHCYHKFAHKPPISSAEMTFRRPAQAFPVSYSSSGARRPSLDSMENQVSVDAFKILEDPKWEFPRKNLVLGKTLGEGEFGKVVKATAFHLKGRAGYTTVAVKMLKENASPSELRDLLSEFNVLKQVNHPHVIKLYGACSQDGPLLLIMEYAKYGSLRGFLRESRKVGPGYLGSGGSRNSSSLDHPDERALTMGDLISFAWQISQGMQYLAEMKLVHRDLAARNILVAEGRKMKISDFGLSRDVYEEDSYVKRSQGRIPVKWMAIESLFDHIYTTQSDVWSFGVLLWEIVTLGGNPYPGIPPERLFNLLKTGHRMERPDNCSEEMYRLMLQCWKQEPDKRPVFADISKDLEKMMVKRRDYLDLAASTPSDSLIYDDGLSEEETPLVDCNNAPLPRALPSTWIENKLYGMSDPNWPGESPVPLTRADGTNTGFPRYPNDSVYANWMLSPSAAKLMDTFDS

O=C1Nc2c(cc([N+](=O)[O-])c3c2CCCC3)C1=NO [Compound 5d, 3-(Hydroxyimino)-5-nitro-1,3,6,7,8,9-hexahydro-2H-benzo[g]indol-2-one]
inhibition at 10 µM (RET (V804M)): 4% | inhibition at 10 µM (EGFR (T790M)): 0% | inhibition at 10 µM (TSSK1B): 0% | inhibition at 10 µM (RIOK3): 19% | inhibition at 10 µM (GRK4): 34% | inhibition at 10 µM (PKN1): 9% | inhibition at 10 µM (PRKCD): 10% | inhibition at 10 µM (FLT3-autoinhibited): 4% | inhibition at 10 µM (PKAC-α): 0% | inhibition at 10 µM (TRKA): 0% | inhibition at 10 µM (CDKL1): 42% | inhibition at 10 µM (FER): 39% | inhibition at 10 µM (DRAK2): 78% | inhibition at 10 µM (EPHB6): 80% | inhibition at 10 µM (CLK1): 85% | inhibition at 10 µM (MAP3K2): 79% | inhibition at 10 µM (ROS1): 67% | inhibition at 10 µM (PIK3CA (E545K)): 0% | inhibition at 10 µM (CSNK1A1): 93.5% | inhibition at 10 µM (ABL1-P): 46% | inhibition at 10 µM (RIPK1): 0% | inhibition at 10 µM (CAMKK1): 9% | inhibition at 10 µM (PIK3CA (E542K)): 43% | inhibition at 10 µM (AURKB): 90.7% | inhibition at 10 µM (CAMKK2): 56% | inhibition at 10 µM (CAMK4): 7% | inhibition at 10 µM (CDKL5): 0% | inhibition at 10 µM (NEK1): 31% | inhibition at 10 µM (EGFR (G719C)): 24% | inhibition at 10 µM (CASK): 2% | inhibition at 10 µM (EPHA3): 45% | inhibition at 10 µM (ADCK4): 12% | inhibition at 10 µM (YANK1): 11% | inhibition at 10 µM (AKT3): 9% | inhibition at 10 µM (TBK1): 46% | inhibition at 10 µM (WNK4): 1% | inhibition at 10 µM (ERK2): 8% | inhibition at 10 µM (PRKR): 6% | inhibition at 10 µM (WNK2): 0% | inhibition at 10 µM (MYLK4): 7%

— article PMC12300041, “Tricyclic Isatin Derivatives as Anti-Inflammatory Compounds with High Kinase Binding Affinity” (Molecules, 2025)
